{"source": "patent US8563522B2", "about": "“Method of maintaining and/or attenuating a decline in quality of life” (The IAMS Company, priority 1997, dated 2013)", "key": {"hexokinase": {"test_system": "hexokinase", "details": "cited from earlier work"}, "isolated rat hepatocytes": {"test_system": "isolated rat hepatocytes", "details": "cited from earlier work"}, "glucose metabolism": {"test_system": "glucose metabolism", "details": "rodents, long-term, lower dose; cited from earlier work"}, "[1]": {"test_system": "utilization of glucose as an energy source", "details": "cited from earlier work"}, "[2]": {"details": "injected into a rat; cited from earlier work"}, "[3]": {"assay": "Pharmacokinetics, twice daily mannoheptulose in composition fed to older Labrador Retrievers", "assay_type": "in vivo, Labrador Retriever dogs", "description": "The pharmacokinetics of mannoheptulose can be determined in ten adult, female Labrador Retriever dogs fed a nutritionally-balanced composition providing mannoheptulose at levels of 0 or 2 mg/kg of body weight of the dog. Mannoheptulose is provided as avocado extract in the 2 mg/kg diet. The mean age of the dogs is 7.1 years and the age ranges from 5.3 to 8.4 years. Dogs are age-matched across the two composition groups. The average body weight of all dogs is 29 kg and ranges from 25 to 35 kg. The 0 mg/kg composition is fed as a nutritionally-balanced control composition (Eukanuba Senior Maintenance Formula) and it contains no mannoheptulose, avocado extract or avocado meal. The 2 mg/kg composition is the nutritionally-balanced control composition formulated to contain avocado extract to provide mannoheptulose at a dose of 2 mg/kg of body weight of the dog. The amount of composition offered to the dogs is based on feeding guidelines for the control composition and the target weight range and body condition of the dogs. Dogs are fed one-half their daily allotment of composition at 0730 and the remaining half at 1330. Dogs 1, 2, 3, 4 and 5 are fed the composition containing 2 mg/kg mannoheptulose and dogs 6, 7, 8, 9 and 10 are fed the composition containing 0 mg/kg mannoheptulose. Pharmacokinetics of mannoheptulose following twice daily administration of mannoheptulose in a nutritionally-balanced composition is determined by collecting serial blood samples (3 mL) from each dog using a Vacutainer blood collection system and jugular venipuncture. […] Plasma mannoheptulose concentrations are measured using high-performance liquid chromatography tandem mass spectrometry as described herein below.\nA one-compartment model is used to calculate mannoheptulose pharmacokinetics based on plasma mannoheptulose levels following twice daily oral administration of mannoheptulose in a nutritionally-balanced composition (PV(t)). The model is: PV(t)=dose/(a·BW)e^−kt where: a=mannoheptulose pool size (dose/(enrichment at t0)), BW=body weight, k=rate constant of elimination (ln Et−ln E0)/−t, and t=time.\nHigh performance liquid chromatography tandem mass spectrometry (HPLC/MS/MS) is utilized to determine the amount of mannoheptulose present in the plasma of adult dogs. […] Detection and quantitation is by mass spectrometry (MS) operating under multiple reaction monitoring MS/MS conditions. Concentrations of D-mannoheptulose in dog plasma can be quantitated from approximately 20 to 5000 ng/mL. […] Specimen concentrations are determined by back-calculation using a weighted (1/x^2) linear regression of a calibration curve generated from prepared D-mannoheptulose calibration standards. […]"}, "[4]": {"details": "doses of 10 grams, humans, orally; cited from earlier work"}, "[5]": {"assay": "Mice fed a composition containing mannoheptulose", "assay_type": "in vivo"}, "[6]": {"details": "injected, rats, cited from earlier work"}, "[7]": {"assay": "Pharmacokinetics, once daily mannoheptulose in composition fed to adult Labrador Retrievers", "assay_type": "in vivo, Labrador Retriever dogs", "description": "The pharmacokinetics of mannoheptulose can be determined in six adult, male Labrador Retriever dogs fed a nutritionally-balanced composition providing mannoheptulose at levels of 0, 1 or 2 mg/kg of body weight of the dog. Mannoheptulose is provided as an enriched source of avocado extract in the 1 and 2 mg/kg diets. The mean age of the dogs is 4.2 years and the age ranges from 3.3 to 6.1 years. The average body weight of all dogs is 33 kg and the body weight ranges from 28 to 36 kg. Dogs are adapted for 14 days to a nutritionally-balanced control composition (Eukanuba Senior Maintenance Formula) containing no mannoheptulose, avocado extract or avocado meal (0 mg/kg mannoheptulose). The two compositions containing mannoheptulose are the nutritionally-balanced control composition formulated with avocado extract to provide a mannoheptulose dose of 1 or 2 mg/kg of body weight when fed to a dog. […] Pharmacokinetics of mannoheptulose following once daily administration of mannoheptulose in a nutritionally-balanced composition is determined by collecting serial blood samples (3 mL) from each dog on day 9 using a Vacutainer blood collection system and jugular venipuncture. […] Plasma mannoheptulose concentrations are measured using high-performance liquid chromatography tandem mass spectrometry as described herein below.\nA one-compartment model is used to calculate mannoheptulose pharmacokinetics based on plasma mannoheptulose levels following once daily oral administration of mannoheptulose in a nutritionally-balanced composition (PV(t)). […] Area under each plasma mannoheptulose curve is determined using a one-way, repeated measures analysis of variance (GraphPad Prism version 4.00 for Windows).\nHigh performance liquid chromatography tandem mass spectrometry (HPLC/MS/MS) is utilized to determine the amount of mannoheptulose present in the plasma of adult dogs. […] Detection and quantitation is by mass spectrometry (MS) operating under multiple reaction monitoring MS/MS conditions. Concentrations of D-mannoheptulose in dog plasma can be quantitated from approximately 20 to 5000 ng/mL. […]"}}, "data": [{"compound": "O=P(O)(O)OC[C@H]1OC[C@H](O)[C@@H](O)[C@@H]1O", "note": "[1,5-anhydro-D-glucitol-6-phosphate]", "values": [{"measurement": "inhibition of hexokinase", "setting": "hexokinase", "value": "allosteric (non-competitive) inhibitor"}]}, {"compound": "OC[C@H]1O[C@H](CO)[C@@H](O)[C@@H]1O", "note": "[2,5-Anhydro-D-mannitol, 2,5-anhydro-D-mannitol]", "values": [{"measurement": "effect on glucose formation and utilization", "setting": "isolated rat hepatocytes", "value": "interfere in glucose formation and utilization"}]}, {"compound": "O=CC[C@@H](O)[C@H](O)[C@H](O)CO", "note": "[2-deoxy-D-glucose]", "values": [{"measurement": "metabolic hallmarks of caloric restriction", "setting": "glucose metabolism", "value": "reduced body temperature, weight loss, and lower fasting insulin levels"}]}, {"compound": "CO[C@@H]([C@H](O)[C@H](O)CO)[C@@H](O)C=O", "note": "[3-O-methylglucose]", "values": [{"measurement": "responses relative to 2-deoxyglucose", "setting": "[1]; administration in rats", "value": "about seven times weaker"}, {"measurement": "metabolism", "setting": "[1]; in contrast with 2-deoxy-D-glucose", "value": "not metabolized"}]}, {"compound": "O=C[C@H](O)[C@@H](O)[C@H](O)[C@H](S)CO", "note": "[5-Thioglucose, 5-thio-D-glucose]", "values": [{"measurement": "injected 5-thioglucose excreted unchanged in urine", "setting": "[2]", "value": 97, "unit": "%"}]}, {"compound": "O=C(CO)[C@@H](O)[C@@H](O)[C@H](O)[C@H](O)CO", "note": "[mannoheptulose]", "values": [{"measurement": "time to second peak in plasma mannoheptulose", "setting": "[3]; after feeding the afternoon meal, 2 mg/kg in two equal meals", "value": 4, "unit": "h"}, {"measurement": "time to peak plasma mannoheptulose level", "setting": "[3]; after initial (morning) feeding, 2 mg/kg in two equal meals", "value": 4, "unit": "h"}, {"measurement": "plasma kinetics order", "setting": "[3]; twice daily oral, 2 mg/kg", "value": "first order kinetics"}, {"measurement": "half-life", "setting": "[3]; twice daily, 2 mg/kg, after the afternoon meal", "value": 5.63, "unit": "h"}, {"measurement": "safety of oral dosing", "setting": "[4]", "value": "safely administered"}, {"measurement": "body weight", "setting": "[5]", "value": "slightly reduced body weight"}, {"measurement": "plasma insulin levels", "setting": "[5]", "value": "reduced plasma insulin levels"}, {"measurement": "remained in the body", "setting": "[6]; a day after the injection", "value": 5, "unit": "%"}, {"measurement": "excreted unchanged", "setting": "[6]", "value": 66, "unit": "%"}, {"measurement": "metabolized", "setting": "[6]", "value": 29, "unit": "%"}, {"measurement": "plasma level response to dietary mannoheptulose level", "setting": "[7]; 0, 1, 2 mg/kg", "value": "dose-dependent"}, {"measurement": "time of return of plasma mannoheptulose to non-detectable levels", "setting": "[7]; after consumption of the single daily meal", "value": "≤ 24", "unit": "h"}, {"measurement": "plasma kinetics order", "setting": "[7]; once daily oral, 1 or 2 mg/kg", "value": "first order kinetics"}]}]}
